Test results from patent US7705021B2, “Isoindolone compounds, compositions containing the same, and methods of use thereof for the treatment of viral infections related to the etiology of cancer” (Fox Chase Cancer Center, priority 2005, dated 2010).

Assays:
[1] = test system: HLR (HeLa Luciferase Reporter)-Elk-1 cells; experiment: MAPK signaling reporter assay (Elk-1 luciferase, EGF-stimulated); type: cell-based; conditions: Homo sapiens, 5 h, HLR-Elk-1 cells, EGF 10 ng/ml stimulation, luciferase after five hours
Description: The present example describes assays for assessing MAPK pathway signaling modulation mediated by the compounds and compositions described herein. Specifically, compounds of the invention have been assessed in an ELK-1 luciferase reporter assay in HeLa cells to obtain an IC50 measurement as well as to assess their anti-proliferative capacity. Following 72 hours of serum starvation, HLR (HeLa Luciferase Reporter)-Elk-1 cells (30,000 cells per well) were incubated for one hour in the presence or absence of various concentration of inhibitors prior to stimulation of Elk1 release by EGF addition (10 ng/ml). The amount of Elk1 release was measured after five hours using Bright-Glo Luciferase assay (Promega Co., Madison, Wis.).

HCT-116 cells = experiment: Proliferation assay (WST-1); type: cell-based; conditions: Homo sapiens, HCT-116, 48 hours
Description: Five thousand HCT-116 cells were seeded into each well of a 96 well flat bottom plate and incubated over night at 37° C. in 5% CO2. The growth of plated cells was measured by adding […] WST-1 reagent (Roche Applied Sciences, Germany) to three control wells and measuring OD650 and OD450 absorbances with a SpectraMax250 plate reader. If the OD650-OD450 values were above 0.5, the remainder of the plate was used for incubation with compounds or solvent control for 48 hours. After this incubation, WST-1 reagent was added to the wells and OD650-OD450 values were calculated as before. Triplicate wells were assayed for each condition and standard deviation was determined; all experiments were performed at least three times independently.

IC50 [1] [µM]	GI50 (HCT-116 cells) [µM]	Structure (SMILES)	inhibition at 60 µM (HCT-116 cells) [%]
22.2 ± 6.8	22.2 ± 5.3	COc1cc(C2(OC)c3ccccc3C(=O)N2CCc2ccccn2)ccc1OCc1ccccc1 (stereo not drawn) [Compound 7, 3-(4-Benzyloxy-3-methoxy-phenyl)-3-methoxy-2-(2-pyridin-2-yl-ethyl)-2,3-dihydro-isoindol-1-one]	–
31.8 ± 6.1	–	COc1cc(C2c3ccccc3C(=O)N2CCc2ccccn2)ccc1OCc1ccccc1 (stereo not drawn) [Compound 8, 3-(4-Benzyloxy-3-methoxy-phenyl)-2-(2-pyridin-2-yl-ethyl)-2,3-dihydro-isoindol-1-one]	21
43 ± 6.9	–	COc1cc(CN2C(=O)c3ccccc3C2Cc2ccccn2)ccc1OCc1ccccc1 (stereo not drawn) [Compound 11, 2-(4-benzyloxy-3-methoxy-benzyl)-3-(2-pyridin-2-yl-methyl)-2,3-dihydro-isoindol-1-one]	26
